Assay results as given in patent US6603046B1, “Bis-aromatic a,β-unsaturated ketones” (Lica Pharmaceuticals A/S, priority 1992, dated 2003).

How the values were obtained:
P. yoelii strain YM = P. yoelii strain YM infection in mice, parasitemia and mortality (Example 16); format: in vivo, BALB/c mice; details: Table 16.12
Eimeria tenella = assay: Anticoccidial activity in chickens infected with Eimeria tenella (Example 28); format: in vivo; details: for feed consumption after 7 days of treatment / feed consumption after 14 days of treatment: amount of feed consumed per kg chicken weight gain, doses as Table 28.1; for Weight gain in 7 days after initiation of treatment / Weight gain in 14 days after initiation of treatment: in feed: salinomycin 70 ppm, 2,5 m4′ac and 2,4 mc 30 mg/kg/day, licochalcone A 10 mg/kg/day; for Mortality: number of chickens, groups of 35, licochalcone A 20
[1] = system: chloroquine resistant P. falciparum DD2 strain; assay: In vitro growth of P. falciparum DD2, 3H-hypoxanthine uptake (Example 15); format: cell-based, Plasmodium falciparum; details: title: percentage inhibition of 3H-hypoxanthine uptake
L. major promastigotes = L. major promastigotes from 4-days cultures, 3H-thymidine uptake (Examples 5, 14); format: cell-based, Leishmania major; details: Leishmania major, Table 14.1, read-out: percentage inhibition of promastigotes (upper figure); for inhibition at 0.5 µg/mL: 0.5 μg/ml; for inhibition at 1 µg/mL: 1 μg/ml; for inhibition at 5 µg/mL: 5 μg/ml; for inhibition at 10 µg/mL: 10 μg/ml
Method: Parasite cultures. The same parasite culture as described in Example 4. Promastigotes were harvested on day 4 of the culture and used for the parasiticidal assay.
Effect on promastigotes. […] Following incubation, […] of ^3H-thymidine was added to each well and further incubated for 18 hrs. Promastigotes were then harvested on filter paper by means of a cell harvester (Skatron, Lierbyen, Norway), extensively washed with distilled water and counted in a scintillation counter (Minaxi Ti-Carb 4000, United Technologies, Packard, USA).
L. major promastigotes. The L. major promastigotes were prepared as described in Example 4 and harvested after 4 days.

P. falciparum = P. falciparum growth in vitro (Table 14.1, strain not stated); format: cell-based; details: Plasmodium falciparum, read-out: inhibition of malaria parasites (middle figure) (converted); for inhibition at 0.5 µg/mL: 0.5 μg/ml; for inhibition at 1 µg/mL: 1 μg/ml; for inhibition at 5 µg/mL: 5 μg/ml; for inhibition at 10 µg/mL: 10 μg/ml
Method: The P. falciparum experimental setup was as described in Example 15.
Testing of the effect of drugs and serum on the in vitro growth of the parasites. The experiments in which compounds were tested for their ability to inhibit parasite growth were performed by a modification of the method originally described by Jensen et al. (1982). Fifty μl of parasitized erythrocytes (parasitemia approximately 1%) in a concentration of 5×10^8/ml and 50 μl of RPMI medium containing different concentrations of the test compound was added to each well of a 96 well flat-bottomed microtiter plate (Nunc). The cultures were then incubated for 48 hours, 24 hours before termination of the culture adding 20 μl of 3-H-hypoxanthine (40 uCi/ml) (New England Nuclear, Boston, Mass., USA) was added to each well. The cultures were then harvested onto glass fiber filters using a Skatron cell harvester (Skatron, Lierbyen, Norway), and the incorporation of 3-H-hypoxanthine into the DNA of dividing parasites was determined by liquid scintillation spectrometry.

human lymphocytes = assay: Lymphocyte Proliferation Assay, 3H-thymidine incorporation (Example 13); details: Homo sapiens, Lymphocyte, read-out: inhibition of lymphocytes (lower figure)
[2] = D + 5, i.p. 40 mg/kg twice daily
[3] = D + 6, i.p. 10 mg/kg twice daily
[4] = D + 6, i.p. 20 mg/kg twice daily
[5] = D + 6, i.p. 30 mg/kg twice daily
[6] = D + 6, i.p. 40 mg/kg twice daily
[7] = D + 8, i.p. 20 mg/kg twice daily
[8] = D + 8, i.p. 30 mg/kg twice daily
[9] = D + 10, i.p. 30 mg/kg twice daily

Structure (SMILES)	mortality (no. of dead mice/total no. of tested mice) (P. yoelii strain YM; [3])	% parasitemia (P. yoelii strain YM; [4]) [%]	mortality (no. of dead mice/total no. of tested mice) (P. yoelii strain YM; [4])	% parasitemia (P. yoelii strain YM; [5]) [%]	mortality (no. of dead mice/total no. of tested mice) (P. yoelii strain YM; [5])	mortality (no. of dead mice/total no. of tested mice) (P. yoelii strain YM; [6])	mortality (no. of dead mice/total no. of tested mice) (P. yoelii strain YM; [7])	% parasitemia (P. yoelii strain YM; [8]) [%]	inhibition at 0.5 µg/mL (L. major promastigotes) [%]	inhibition at 1 µg/mL (L. major promastigotes) [%]	inhibition at 5 µg/mL (L. major promastigotes) [%]	inhibition at 10 µg/mL (L. major promastigotes) [%]	inhibition at 0.5 µg/mL (P. falciparum) [%]	inhibition at 1 µg/mL (P. falciparum) [%]	inhibition at 5 µg/mL (P. falciparum) [%]	inhibition at 10 µg/mL (P. falciparum) [%]	inhibition at 0.5 µg/mL (human lymphocytes) [%]	inhibition at 1 µg/mL (human lymphocytes) [%]	inhibition at 5 µg/mL (human lymphocytes) [%]	inhibition at 10 µg/mL (human lymphocytes) [%]	also measured
COc1ccc(/C=C/C(=O)c2ccccc2)c(OC)c1 [2,4mc, 2,4-dimethoxychalcone]	(5/5)	85	4/5	29	3/5	(5/5)	(5/5)	15													% parasitemia (P. yoelii strain YM; [2]): 78%; mortality (no. of dead mice/total no. of tested mice) (P. yoelii strain YM; [2]): 4/5; mortality (no. of dead mice/total no. of tested mice) (P. yoelii strain YM; [8]): 4/5; % parasitemia (P. yoelii strain YM; [9]): 65%; mortality (no. of dead mice/total no. of tested mice) (P. yoelii strain YM; [9]): 4/5; mortality (no. of dead mice/total no. of tested mice) (P. yoelii strain YM; D + 12, i.p. 30 mg/kg twice daily): (5/5); feed consumption after 7 days of treatment (Eimeria tenella): 1.30; feed consumption after 14 days of treatment (Eimeria tenella): 1.48; Weight gain in 7 days after initiation of treatment (Eimeria tenella): 380 grams per chicken; Weight gain in 14 days after initiation of treatment (Eimeria tenella): 803^ grams per chicken; Mortality (Eimeria tenella): 1
C=CCOc1ccc(C(=O)/C=C/c2cc(OC)ccc2OC)cc1 [2,5-Dimethoxy-4′-allyloxychalcone, 2,5-dimethoxy-4′-prop-2enyloxychalcone]	(5/5)	79	4/5	62	3/5	(5/5)	(5/5)	78													Growth in % of control (mean ± SEM) ([1]; 0.5 μg/ml): 15.8 ± 13.2%; Growth in % of control (mean ± SEM) ([1]; 1 μg/ml): 12.1 ± 13.7%; Growth in % of control (mean ± SEM) ([1]; 5 μg/ml): 45.3 ± 7.2%; Growth in % of control (mean ± SEM) ([1]; 10 μg/ml): 74.4 ± 4.4%; mortality (no. of dead mice/total no. of tested mice) (P. yoelii strain YM; [8]): 4/5; mortality (no. of dead mice/total no. of tested mice) (P. yoelii strain YM; [9]): (5/5); feed consumption after 7 days of treatment (Eimeria tenella): 1.31; feed consumption after 14 days of treatment (Eimeria tenella): 1.54; Weight gain in 7 days after initiation of treatment (Eimeria tenella): 366 grams per chicken; Weight gain in 14 days after initiation of treatment (Eimeria tenella): 804^ grams per chicken; Mortality (Eimeria tenella): 2
COc1ccc(/C=C/C(=O)c2ccc(O)cc2)cc1OC [drawing 73]									17.8	34.3	65.6	80	21	35.1	39.9	73.4	0	0.1	5.2	27.4	
C=CCOc1ccc(C(=O)/C=C/c2cc(OC)ccc2OC)cc1 [drawing 78]									10 ± 9.7	15.6 ± 15.1	63 ± 15.1	89.4 ± 10.2	0	0	35	80	5.7	12.6	4.3	2.3	
C=CCOc1ccc(C(=O)/C=C/c2cccc(OC)c2OC)cc1 [drawing 81]									13.9 ± 12.9	20.7 ± 17.1	82.1 ± 13.6	98.1 ± 1	0	17.2	68.2	73.1	10.8	14.2	8.8	13.8	
